Measurements taken from patent US5310757A, “3,3,5-trimethylcyclohexyl 2-methylpropionate derivatives, their method of preparation and therapeutic compositions in which they are present” (Panmedica, priority 1989, dated 1994).

Columns and labels:
[1] = target: T1, 3-hydroxy-3-methylglutaryl-CoA reductase (Rattus norvegicus, UniProt P51639); test: inhibition of 3-hydroxy-3-methylglutaryl-CoA reductase activity (method of Kuroda et al.); assay type: biochemical; conditions: concentration for 50% inhibition of 3-hydroxy-3-methylglutaryl-CoA reductase activity
T1 construct: from tissue
T1 sequence (P51639 1-887): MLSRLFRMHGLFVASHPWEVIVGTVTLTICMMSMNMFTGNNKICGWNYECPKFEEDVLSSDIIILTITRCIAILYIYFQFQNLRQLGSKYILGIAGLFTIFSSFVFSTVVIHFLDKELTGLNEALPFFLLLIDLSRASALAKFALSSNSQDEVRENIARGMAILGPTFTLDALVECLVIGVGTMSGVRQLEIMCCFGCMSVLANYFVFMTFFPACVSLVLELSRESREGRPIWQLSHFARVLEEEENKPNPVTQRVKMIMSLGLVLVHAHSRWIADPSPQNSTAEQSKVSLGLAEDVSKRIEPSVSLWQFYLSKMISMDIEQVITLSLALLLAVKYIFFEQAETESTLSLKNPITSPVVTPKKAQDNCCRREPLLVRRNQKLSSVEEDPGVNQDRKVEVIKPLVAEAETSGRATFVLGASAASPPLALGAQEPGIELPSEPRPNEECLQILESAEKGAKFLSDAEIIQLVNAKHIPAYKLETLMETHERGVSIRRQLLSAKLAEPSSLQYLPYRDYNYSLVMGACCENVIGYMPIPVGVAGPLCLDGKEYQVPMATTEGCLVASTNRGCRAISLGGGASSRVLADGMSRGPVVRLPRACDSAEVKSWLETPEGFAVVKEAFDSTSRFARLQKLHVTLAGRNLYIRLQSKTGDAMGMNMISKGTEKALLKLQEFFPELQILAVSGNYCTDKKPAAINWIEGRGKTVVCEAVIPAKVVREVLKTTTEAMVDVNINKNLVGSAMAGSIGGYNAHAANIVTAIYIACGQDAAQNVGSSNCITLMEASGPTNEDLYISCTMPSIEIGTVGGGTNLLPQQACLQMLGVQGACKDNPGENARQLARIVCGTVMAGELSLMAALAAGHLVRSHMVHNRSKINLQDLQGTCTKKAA
Experimental: The biosynthesis of cholesterol in an isolated enzymatic system or in a cell culture from organs removed from experimental animals is inhibited by limiting the activity of the enzyme 3-hydroxy-3-methylglutaryl-CoA reductase.
The inhibitory activity of the products according to the present invention was determined by the method of Kuroda et al. (Biochemica et Biophysica Acta, vol. 486, pp. 70-81 (1977)), which is a modification of the method of Shapiro et al. (Analytical Biochemistry, vol. 31, pp. 383-390 (1969)). The results are summarized in Table II, where IC50 is the concentration of product in the experimental medium which is necessary to achieve a 50% inhibition of the 3-hydroxy-3-methylglutaryl-CoA reductase activity, expressed in nanomol.

HMG-CoA red. = HMG-CoA red. activity "ex vivo" in liver microsomes after chronic intraperitoneal administration to rats; design: Mevalonate formed: unit not given here; conditions: 50 mg/kg for 6 days; for Mevalonate formed: Control 17; for % inhibition: inhibition of HMG-CoA red. activity, Control 0
Experimental: The inhibitory activity of the products according to the present invention was determined by the method of Kuroda et al. (Biochemica et Biophysica Acta, vol. 486, pp. 70-81 (1977)), which is a modification of the method of Shapiro et al. (Analytical Biochemistry, vol. 31, pp. 383-390 (1969)). […] The doses administered were 50 mg/kg for 6 days; six rats were used in each series; they are sacrificed without anaesthesia and the liver microsomes are isolated for the assay, which is performed according to the above-mentioned protocol.

[2] = system: hyperlipidaemia caused by TRITON 1339; test: test for the hyperlipidaemia caused by TRITON 1339; assay type: in vivo; conditions: rats, Triton test after oral administration for six days, 0.5 millimol per kilogram; for HDL cholesterol: Control 0.7 ± 0.1, Triton 0.8 ± 0.1; for Triglycerides: Control 1 ± 0.3, Triton 10 ± 7; for Total cholesterol: Control 2 ± 0.15, Triton 9 ± 3; for Total lipids: Control 3.5 ± 0.4, Triton 20 ± 10
Experimental: The Table below summarizes the results of the pharmacological studies carried out especially by means of the test for the hyperlipidaemia caused by TRITON 1339. The experimental protocol was that published by J. C. […] et al. (Gaz. Med. France, 3rd inter. coll. 1982, Dijon, 18-22). The tests are performed on groups of 7 rats weighing from 280 to 290 g. The Triton test is carried out after oral administration for six days at a rate of 0.5 millimol per kilogram of body weight. The following lipid parameters are measured: total cholesterol, triglycerides, total lipids and HDL cholesterol.

| SMILES | IC50 [1] | Mevalonate formed (HMG-CoA red.) | % inhibition (HMG-CoA red.) | HDL cholesterol [2] | Triglycerides [2] | Total cholesterol [2] | Total lipids [2] |
| --- | --- | --- | --- | --- | --- | --- | --- |
| C[C@@H]1C[C@H](OC(=O)C(C)(C)Oc2ccc(C(=O)c3ccc(Cl)cc3)cc2)CC(C)(C)C1 (relative stereo) [Example 2, (CIS) 3,3,5-TRIMETHYLCYCLOHEXYL 2-(4-(4-CHLOROBENZOYL)PHENOXY)-2-METHYLPROPIONATE] | 37.2 nM | 7.3 | 57% | 2.1 ± 0.5 mmol/L | 0.5 ± 0.15 mmol/L | 3.0 ± 0.4 mmol/L | 3.6 ± 0.2 g/L |
| Cc1ccc(C)c(OCCCC(C)(C)C(=O)O[C@H]2C[C@@H](C)CC(C)(C)C2)c1 (relative stereo) [Example 5, (CIS) 3,3,5-TRIMETHYLCYCLOHEXYL 2-(3-(2,5-DIMETHYLPHENOXY)PROPYL)-2-METHYLPROPIONATE] | 30.1 nM | 6.71 | 60% | 1.0 ± 0.3 mmol/L | 2.0 ± 0.3 mmol/L | 5.0 ± 0.8 mmol/L | 3.0 ± 0.4 g/L |
| C[C@H]1C[C@H](OC(=O)C(C)(C)Oc2ccc(-c3ccccc3)cc2)CC(C)(C)C1 (relative stereo) [Example 7, (TRANS) 3,3,5-TRIMETHYLCYCLOHEXYL 2-(4-PHENYLPHENOXY)-2-METHYLPROPIONATE] | 42.5 nM | – | – | 1.5 ± 0.4 mmol/L | 1.1 ± 0.5 mmol/L | 2.2 ± 0.4 mmol/L | 3.0 ± 0.5 g/L |
